The text below walks through data of patent publication US20210262025A1, “MULTIPLEXED IN VIVO DISEASE SENSING WITH NUCLEIC ACID-BARCODED REPORTERS” (Massachusetts Institute of Technology, priority 2020, published 2021).

The subject of data set [1] is LbaCas12a. Put plainly: Cas12a fluorescent cleavage assay, DNA activators in solution. The format is biochemical, Lachnospiraceae bacterium ND2006. From the text: (§1) In particular, the Cas12a from Lachnospiraceae bacterium ND2006 (LbaCas12a, UniProtKB Accession No. A0A182DWE3) assembled with guide CRISPR RNA sequences (crRNAs) recognizes 1) a T nucleotide-rich protospacer-adjacent motif (PAM) to target double-stranded DNA (dsDNA), or 2) single-stranded DNA (ssDNA) through sequence complementarity in a PAM-independent manner, and unleashes a robust, nonspecific ssDNA trans-cleavage activity that can be monitored using a fluorophore (F)-quencher (Q)-labeled reporter (FIG. 2A) (Chen et al. Science 360, 436-439 (2018)). […] In Table 6, activation of Cas12a with native and modified DNA oligos was quantified in the Cas12a fluorescent cleavage assay. […]
(§2) LbCas12a (final concentration 100 nM, New England Biolabs) was incubated with 1× NEB BUFFER™ 2.1, crRNA (250 nM, IDT) and complementary DNA activators (4 nM unless specifically described, IDT, in solution or spiked in urine) or urine samples collected from experimental animals at 37° C. for 30 min. […] LbCas12a activation was detected at 37° C. every 2 min for 3 hours by measuring fluorescence with plate reader Tecan Infinite Pro M200 (λex: 485 nm and λem: 535 nm). Fluorescence for background conditions (either no DNA activator input or no crRNA conditions) were run with each assay to generate background fluorescence as negative controls. […]

Data set [2] relates to LbaCas12a. As to the kind of experiment: Cas12a fluorescent cleavage assay with urine of mice injected with DNA activators. To be noted: urine collected after 1 h added to reaction. Format: in vivo, Lachnospiraceae bacterium ND2006.
From the text: as §1, §2

In data set [3] the test system is tumor tissue homogenates. Put plainly: Tissue lysate proteolytic cleavage assay of FRET-paired peptide substrates. The format is biochemical, Balb/c mice. As to conditions: tumor-bearing or healthy lung tissue homogenates, ex vivo. How it is done: FIGS. 6A-6E show experiments relating to portable monitoring invasive CRC using DNA-encoded multiplex synthetic urine biomarkers. […] Peptide cleavage kinetics were monitored and cleavage rates were plotted (n=5 mice per group; ±SEM; unpaired t-test with Welch's correction, **P<0.01, ****P<0.0001). […] All urine samples were collected at 1 h after sensor administration. Cas12a trans-cleavage assays were performed against each DNA-barcode with the fluorophore-quencher paired reporter. Initial reaction velocity (V0) of the Cas12a trans-cleavage assays were calculated and normalized to that of saline injected control animals (n=8 or 10 mice per group; ±SEM; unpaired t-test with Welch's correction, *P<0.05, **P<0.01). The initial reaction velocity (V0) refers to the slope of the curve at the beginning of a reaction. […] Band intensities were quantified using ImageJ. […] ROC analysis utilized ratio of quantified cleaved reporter band intensity over its corresponding control band intensity. Dashed line represents an AUC of 0.5, and a perfect AUC is 1.0.
Tissue samples were homogenized in PBS and centrifuged at 4° C. for 5 min at 6,000×g. Supernatant was further centrifuged at 14,000×g for 25 min at 4° C. Protein concentration was measured using ThermoFisher BCA Protein Assay Kit and prepared at 2 mg/mL prior to assay. Assays were performed in the 384-well plate in triplicate in enzyme-specific buffer with peptides (1 μM) and cell lysates (0.33 mg/mL) in 30 μL at 37° C. Fluorescence was measured at Ex/Em 485/535 nm using a Tecan Infinite 200pro microplate reader (Tecan). Signal increase at 60 min was used across conditions.

Data set [4] has as its system serine and metalloproteases. As to the kind of experiment: Recombinant protease substrate cleavage assay. Format: biochemical. The procedure:
Fluorogenic protease substrates with fluorophore (FAM) and quencher (CPQ2) were synthesized by CPC Scientific Inc. Recombinant proteases were purchased from Enzo Life Sciences and R&D Systems. Assays were performed in the 384-well plate in triplicate in enzyme-specific buffer with peptides (1 μM) and proteases (40 nM) in 30 μL at 37° C. Fluorescence was measured at Ex/Em 485/535 nm using a Tecan Infinite 200pro microplate reader (Tecan). Signal increase at 60 min was used across conditions.

Data set [5] has as its system T1, FRET-PAP11.
T1 sequence: GGGSGRSANAKGKGC

Data set [6] relates to subcutaneous PC-3 tumors. Set-up: species or system nude mice. As to conditions: mouse, in vivo. How it is done:
Studies were performed in experimental animals with near-infrared dye labeled agents to minimize interference from autofluorescent background. Balb/c mice were intravenously injected with Cy5-labeled modified or native DNA molecules at 1 nmol per mouse, n=3 per condition. Urine samples from each mouse was collected at 30 min, 1, 2, 3, 4 hours after injection. C-met nanobodies were coupled with Sulfo-Cyanine7 NHS ester (Lumiprobe), reacted overnight, purified by spin filtration and injected into PC-3 tumor-bearing nude mice (1.5 nmol dye eq. of protein) via i.v. injection. After 24 hours, mice were euthanized and necropsy was performed to remove the tumors, lungs, heart, kidneys, liver, and spleen. Urine, blood and organs were scanned using IVIS Imaging Systems and ODYSSEY® CLx (LI-COR). Organ fluorescence was quantified in ImageStudio of ODYSSEY® CLx. Blood circulatory kinetics were monitored in Balb/c mice by serial blood draws at 10 min, 30 min, 120 min and 180 min after i.v. injection of Cy5-labeled DNA or PEG at 1 nmol dye per mouse. Blood for pharmacokinetics measurements was collected using tail vain bleeds. Blood was diluted in PBS with 5 mM EDTA to prevent clotting, centrifuged for 5 min at 5,000×g, and fluorescent reporter concentration was quantified in 384-well plates relative to standards (LI-COR ODYSSEY® CLx).

The target of data set [7] is T2, cMET (human, UniProt P08581 25-1390).
T2 construct: whole, on cells; The target is presented on cMET- and PLAU-expressing tumors derived from PC-3 cells in nude mice; It is not a purified protein
Put plainly: in vivo biodistribution (IVIS imaging) of Cy7-labelled nanobody after i.v. injection into nude mice bearing cMET-expressing PC-3 xenografts.

Data set [8] is described as follows: Solubility of purified recombinant nanobody. Format: physicochemical. As to conditions: after affinity and size-exclusion chromatography. From the text: One major challenge for diagnosis and therapy of cancer is tailoring multiple disease signatures, which are defined by biological differences spanning genetic, transcriptomic, and proteomic differences between tumor and healthy tissue, while minimizing off-target effects (Hunter, K. Nature reviews. Cancer 2006, 6, 141). To this end, a tumor-targeting nanobody was re-engineered to construct protease-activatable nanobodies through programmable genetic encoding (FIGS. 5A-5B). Protease-activatable nanobodies were constructed by inserting a well characterized PLAU substrate (PQ2: GGSGRSANAK (SEQ ID NO: 3)) with an unpaired cysteine for one-step site-specific labeling of cargos via a thio-ether bond (see, e.g., Masa et al., Bioconjugate chemistry 2014, 25, 979). The cysteine was introduced at the carboxyl terminus, positioning the conjugation-site on the opposite side of the antigen-binding region to avoid antigen binding interference. To prevent possible misfolding caused by the internal disulfide bond present in the Nb, the peptide substrate with cysteine is spaced by a rigid linker (SPSTPPTPSPSTPP (SEQ ID NO: 6)) from the Nb sequence.
On the technique in general: SEC sorts molecules by how far they enter the pores of the column.

Entries after “also recorded” stand apart in the source; their conditions may differ. Strand notation (5' to 3'): a small letter for the sugar, then the base; units joined by * are phosphorothioate-linked, units joined directly phosphodiester-linked; [ ] holds rarer units or linkages, { } end groups; capitals alone tell only the bases. Primed or numbered codes have the meaning given here. Where no end group is shown, it is not given here. [ ]: non-standard residue; d: D form. The star is where a group is joined. 5FAM = O=C1OC2(c3ccc(O)cc3Oc3cc(O)ccc32)c2ccc(C(=O)*)cc21; PEG2′ = not defined here; d = 2'-deoxy (DNA); CPQ2 = quencher

T2 sequence (P08581 25-1390): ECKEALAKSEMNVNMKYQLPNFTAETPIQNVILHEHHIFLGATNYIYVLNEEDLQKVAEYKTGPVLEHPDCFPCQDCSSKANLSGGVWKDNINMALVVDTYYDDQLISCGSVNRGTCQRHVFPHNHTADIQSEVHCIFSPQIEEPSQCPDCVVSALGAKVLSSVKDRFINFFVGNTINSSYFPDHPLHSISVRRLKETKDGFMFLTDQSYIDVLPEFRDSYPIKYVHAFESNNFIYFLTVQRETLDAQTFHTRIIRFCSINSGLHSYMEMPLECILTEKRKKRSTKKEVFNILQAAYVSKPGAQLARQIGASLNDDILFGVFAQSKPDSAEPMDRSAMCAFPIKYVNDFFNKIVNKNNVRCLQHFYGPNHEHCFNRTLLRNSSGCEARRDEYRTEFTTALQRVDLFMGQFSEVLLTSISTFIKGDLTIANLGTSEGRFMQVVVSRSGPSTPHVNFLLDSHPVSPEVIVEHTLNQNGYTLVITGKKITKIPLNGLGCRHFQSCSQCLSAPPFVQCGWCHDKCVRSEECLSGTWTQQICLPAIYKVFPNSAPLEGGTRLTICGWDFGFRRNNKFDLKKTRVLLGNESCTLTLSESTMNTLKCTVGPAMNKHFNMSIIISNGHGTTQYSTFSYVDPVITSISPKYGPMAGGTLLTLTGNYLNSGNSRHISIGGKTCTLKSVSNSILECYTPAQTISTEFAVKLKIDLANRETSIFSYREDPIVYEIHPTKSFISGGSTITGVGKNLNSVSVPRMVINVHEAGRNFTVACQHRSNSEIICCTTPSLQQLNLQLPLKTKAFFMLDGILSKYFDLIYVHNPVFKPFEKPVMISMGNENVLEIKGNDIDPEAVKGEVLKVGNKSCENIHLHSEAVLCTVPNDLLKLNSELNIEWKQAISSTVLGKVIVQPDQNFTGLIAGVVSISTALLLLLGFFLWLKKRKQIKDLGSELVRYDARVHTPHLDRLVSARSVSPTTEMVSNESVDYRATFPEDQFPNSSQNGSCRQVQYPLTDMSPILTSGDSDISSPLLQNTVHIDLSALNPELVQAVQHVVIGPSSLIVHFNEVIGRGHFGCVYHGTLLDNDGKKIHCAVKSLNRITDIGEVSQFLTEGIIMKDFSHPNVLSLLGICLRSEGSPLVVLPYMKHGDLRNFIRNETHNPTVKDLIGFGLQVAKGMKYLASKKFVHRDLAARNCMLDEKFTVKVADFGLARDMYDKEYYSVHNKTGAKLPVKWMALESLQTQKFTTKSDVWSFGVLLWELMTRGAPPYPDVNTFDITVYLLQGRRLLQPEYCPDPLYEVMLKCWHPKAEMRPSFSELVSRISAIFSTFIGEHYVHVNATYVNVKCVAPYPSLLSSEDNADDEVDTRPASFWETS

As for “10 mer: native ssDNA activator CGTAACGATC (SEQ ID NO: 28) (unmodified DNA)”, the “Native DNA in vitro (V0)” value in data set [1] (initial reaction velocity, 4 nM of native DNA activator per reaction) was found to be 0.00. Further, in data set [2] (1 nmol native DNA activator injected into healthy Balb/c mice), the “Native DNA in vivo (V0)” value was 0.00.
For “FRET-PAP7: 5FAM-GGPLGVRGKK(CPQ2)-PEG2-GC (SEQ ID NO: 61) (5FAM-GGPLGVRGKK(CPQ2)[PEG2′]GC)”, the “cleavage by tissue homogenates” value in data set [3] is given as “specifically cleaved”.
As to “FRET-PAP9: 5FAM-GGfPRSGGGK(CPQ2)-PEG2-GC (SEQ ID NO: 63)”, the “cleavage by tissue homogenates” value in data set [3] was “specifically cleaved; also recorded: distinct cleavage patterns”. Further, the “cleavage by recombinant proteases in vitro” value in data set [4] is “cleaved by serine and metalloproteases in vitro”.
For “FRET-PAP11: 5FAM-GGGSGRSANAKG-K(CPQ2)-PEG2-GC (SEQ ID NO: 65) (5FAM-GGGSGRSANAKGK(CPQ2)[PEG2′]GC)”, the “cleavage by tissue homogenates” value in data set [3] is “specifically cleaved”.
On the same count and under the same terms, the same measure for “FRET-PAP13: 5FAM-GGVPRGG-K(CPQ2)-PEG2-GC (SEQ ID NO: 67) (5FAM-GGVPRGGK(CPQ2)[PEG2′]GC)”: “specifically cleaved”.
For the molecule “Mod 10 mer: fully phosphorothioate-modified ssDNA activator, SEQ ID NO: 35 (DNA dC*dG*dT*dA*dA*dC*dG*dA*dT*dC)”, the “Modified DNA in vitro (V0)” value in data set [1] (initial reaction velocity (slope at beginning of reaction), 4 nM of phosphorothioate-modified DNA activator per reaction) was found to be 0.01. Also, the “Modified DNA in vivo (V0)” value in data set [2] (1 nmol modified DNA activator injected into healthy Balb/c mice) is given as 0.01.
Consider “PLAU (urokinase-type plasminogen activator), recombinant”, for which the “cleavage of FRET-paired peptide substrate by recombinant protease (fluorogenic activity assay, FIG. 13D)” value in data set [5] is reported as “The peptide substrate specifically responded to the PCa-associated protease PLAU”.

B1: GFP nanobody: non-targeting nanobody against GFP (Clone LaG-16) with rigid linker, PLAU substrate and cysteine, SEQ ID NO: 72 (protein)
VHH: MAQVQLVESGGRLVQAGDSLRLSCAASGRTFSTSAMAWFRQAPGREREFVAAITWTVGNTILGDSVKGRFTISRDRAKNTVDLQMDNLEPEDTAVYYCSARSRGYVLSVLRSVDSYDYWGQGTQVTVSGSHHHHHHSPSTPPTPSPSTPPGSGRSANAKGGGSC
As to B1, in data set [6], the “tumor trafficking upon systemic administration” value is reported as “did not”.

B2: cMET nanobody (PLAU-activated, cMET-targeting nanobody) (VHH)
VHH: EVQLVESGGGLVQPGGSLRLSCAASGFILDYYAIGWFRQAPGKEREGVLCIDASDDITYYADSVKGRFTISRDNAKNTVYLQMNSLKPEDTGVYYCATPIGLSSSCLLEYDYDYWGQGTLVTVSS
modifications: labelled with Sulfo-Cyanine7 NHS ester for the biodistribution study (sites not given)
notes: also called C-met nanobodies; Nb-PAS
As for B2, the binding result in data set [7] is recorded as “binds”.

B3: cMET nanobody: PLAU-activated, cMET-targeting nanobody with rigid linker, PLAU substrate and unpaired cysteine, SEQ ID NO: 71 (protein)
VHH: MEVQLVESGGGLVQPGGSLRLSCAASGFILDYYAIGWFRQAPGKEREGVLCIDASDDITYYADSVKGRFTISRDNAKNTVYLQMNSLKPEDTGVYYCATPIGLSSSCLLEYDYDYWGQGTLVTVSSGSHHHHHHSPSTPPTPSPSTPPGSGRSANAKGGGSC
B3: the “tumor trafficking upon systemic administration” value in data set [6] is on record as “mediated active tumor trafficking”. In addition, the solubility entry in data set [8] is “comparable solubility with the original Nb”.
